Like-named read-outs stand apart in the source and are kept apart here.
How the values were obtained:
Jurkat cells = test: Proliferation of Jurkat cells with or without ionomycin; type: cell-based, human; conditions: for IC50: Homo sapiens, Jurkat cells, 48 hrs
Protocol: FIG. 2. The Ca2+ ionophore ionomycin overcomes the inhibition of Ca2+ entry into and proliferation of Jurkat cells produced by TH-1177. Panel A. Ca2+ entry into Jurkat cells was determined as described in Materials and Methods. Ionomycin at the indicated concentrations was added at 30 s and the mitogenic monoclonal antibody (OKT3 was added at a concentration of 1 ug/ml at 60 s. Either EGTA at 2.5 mM or TH-1177 at the indicated concentrations was added at 150 s. The percentage inhibition was determined as described in Material and Methods. Panel B. Jurkat cells were grown for 48 hrs in the presence (open symbols) or absence (closed symbols) of 30 nM ionomycin and the indicated concentrations of TH-1177. Percent control growth was determined as described in Materials and Methods.
(§1) LNCaP cells at 2.5×10^4 cells/well or PC-3 cells at 5×10^4 cells/well, both in a final volume of 100 IJI, were plated in triplicate in standard flat-bottomed 96-well tissue culture plates in the presence of drug or vehicle (DMSO). Unless otherwise indicated, cells were grown for 48 h at 37° C. in a CO2 incubator. Relative cell growth was determined with the CellTiter 96 aqueous cell proliferation assay (Promega, Madison, Wis.) as described by the manufacturer using an automated plate reader. Results were calculated in a blinded fashion and are the means of triplicate determinations.

[1] = system: xenografted human PC3 prostate cancer cells; conditions: treatment with TH-1177; Haverstick et al. 2000; cited from earlier work
[2] = system: PC3 human prostate cancer cells; test: Proliferation of PC3 prostate cancer cells (CellTiter 96); type: cell-based; conditions: read-out: IC50 for inhibiting proliferation of PC3 prostate cancer cells
Protocol: FIG. 5, TH-1177 and TH-1211 are stereoisomers about one of two chiral centers and have different potencies at inhibiting the proliferation of PC3 prostate cancer cells. Panel A: The structures of TH-1177 and TH-1211 were determined as described in Materials and Methods. The diastereomers are racemic at the benzhydrol center (solid arrows) and enantiomeric at the proline center (open arrows) with TH-1177 having the S configuration and TH-1211 having the R. Panel B: The proliferation of PC3 human prostate cancer cells was determined as described in Materials and Methods.
as §1

IC50 (Jurkat cells; in the presence of 30 uM ionomycin, read-out: IC50 of TH-1177 for inhibition of proliferation, in the presence of ionomycin) [µM] | IC50 (Jurkat cells; ionomycin absent, read-out: IC50 of TH-1177 for inhibition of proliferation, in the absence of ionomycin) [µM] | IC50 [2] [µM] | Compound | lifespan of mice bearing xenografted PC3 cells [1] | effect on proliferation of ionomycin alone (Jurkat cells; 30 nM ionomycin alone)
4.6 | 17.8 | 14 | COc1ccc(CCN2CCCC2COC(c2ccccc2)c2ccc(Cl)cc2)cc1 (stereo not drawn) [TH-1177] | significantly extended the lifespan | –
– | – | – | C[C@H](CCC(=O)O)C[C@H](C)C[C@H](C)C(=O)/C=C(\O)[C@H](C)C[C@H](C)C/C=C/[C@@H](C)[C@@H](O)[C@@H](C)[C@@H](O)C[C@@H]1CC[C@@](C)([C@H]2CC[C@@](C)([C@@H](C)O)O2)O1 [ionomycin, reference compound] | – | no effect
– | – | 42 | COc1ccc(CCN2CCCC2COC(c2ccccc2)c2ccc(Cl)cc2)cc1 (stereo not drawn) [TH-1211] | – | –
